One test addresses USP46 (Homo sapiens, UniProt P62068). In words: Biacore SPR dose-dependent binding; IC50 from Ub-AMC enzyme inhibition with USP46/UAF1. It is filed as biochemical. (In SPR one partner is held on a chip, and binding of the other changes the refractive index at the surface.)
A further test has as its target USP12 (Homo sapiens, UniProt O75317). In words: Biacore SPR dose-dependent binding; IC50 from Ub-AMC enzyme inhibition with USP12/UAF1. The test is classed as biochemical.

As usually defined, the IC50 is the concentration that gives 50% inhibition.

Chain of USP46 (P62068 whole entry): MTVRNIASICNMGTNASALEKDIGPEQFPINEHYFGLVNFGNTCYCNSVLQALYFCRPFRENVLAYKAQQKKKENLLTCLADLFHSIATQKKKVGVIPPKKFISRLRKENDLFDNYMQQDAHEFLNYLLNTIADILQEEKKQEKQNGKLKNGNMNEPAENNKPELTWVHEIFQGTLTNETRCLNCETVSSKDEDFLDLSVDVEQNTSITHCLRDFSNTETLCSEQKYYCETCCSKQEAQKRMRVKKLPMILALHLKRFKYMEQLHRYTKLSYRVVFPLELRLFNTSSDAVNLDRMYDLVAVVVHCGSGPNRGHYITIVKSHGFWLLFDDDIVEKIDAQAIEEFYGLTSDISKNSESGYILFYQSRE
Chain of USP46 (Q8TAF3 whole entry partner): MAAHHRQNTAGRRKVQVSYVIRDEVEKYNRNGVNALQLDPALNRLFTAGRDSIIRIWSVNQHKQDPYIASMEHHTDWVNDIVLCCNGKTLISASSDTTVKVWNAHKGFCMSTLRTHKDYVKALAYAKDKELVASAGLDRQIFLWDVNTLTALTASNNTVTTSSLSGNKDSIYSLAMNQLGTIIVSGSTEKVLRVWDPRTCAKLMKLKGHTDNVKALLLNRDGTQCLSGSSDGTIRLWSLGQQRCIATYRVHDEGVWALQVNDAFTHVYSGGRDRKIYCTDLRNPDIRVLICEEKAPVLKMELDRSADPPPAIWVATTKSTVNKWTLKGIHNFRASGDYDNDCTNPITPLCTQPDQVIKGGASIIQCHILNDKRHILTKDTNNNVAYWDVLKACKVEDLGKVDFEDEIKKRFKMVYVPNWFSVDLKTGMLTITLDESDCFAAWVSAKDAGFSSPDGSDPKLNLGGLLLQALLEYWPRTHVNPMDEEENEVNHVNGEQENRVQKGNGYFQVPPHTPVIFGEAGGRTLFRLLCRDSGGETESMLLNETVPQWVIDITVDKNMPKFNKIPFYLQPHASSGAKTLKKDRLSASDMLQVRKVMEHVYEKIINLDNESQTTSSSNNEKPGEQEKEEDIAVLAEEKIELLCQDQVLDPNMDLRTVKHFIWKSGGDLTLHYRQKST
Chain of USP12 (O75317 whole entry): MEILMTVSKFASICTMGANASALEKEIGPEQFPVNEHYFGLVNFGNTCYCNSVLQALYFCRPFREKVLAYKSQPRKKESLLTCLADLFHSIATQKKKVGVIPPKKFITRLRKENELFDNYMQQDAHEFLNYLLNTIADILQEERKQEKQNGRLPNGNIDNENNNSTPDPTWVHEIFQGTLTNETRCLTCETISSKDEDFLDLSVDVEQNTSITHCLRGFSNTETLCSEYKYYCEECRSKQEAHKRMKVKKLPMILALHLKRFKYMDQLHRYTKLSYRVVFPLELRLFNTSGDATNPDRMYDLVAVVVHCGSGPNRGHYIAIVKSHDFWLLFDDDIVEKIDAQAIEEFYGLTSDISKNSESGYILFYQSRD
Chain of USP12 (Q8TAF3 whole entry partner): as the sequence (Q8TAF3 whole entry partner) above

`C[C@]12CC[C@H](O)CC1=CC[C@@H]1[C@@H]2CC[C@]2(C)C(n3cnc4ccccc43)=CC[C@@H]12` [galeterone]: the IC50 on USP46 fell in the range of 3.4 to 4.2 µM; on USP12 it was 2.1 to 3.4 µM.
